Counter-ions that a name gives are not always drawn.
Test: Calcium oxalate scale inhibition test under conditions similar to an alkaline pulp bleaching process
Settings: dosage 25 ppm active acid, 45°C, pH 9.5, 100 ppm calcium, 80 ppm oxalates
Experimental: The preferred oxalate scale inhibiting compound of the invention, i.e. the compound of formula I above, was tested alongside various members of the known "DEQUEST" family of phosphonate inhibitors under conditions similar to those encountered in an alkaline pulp bleaching process. The word "DEQUEST" is a Registered Trade Mark.
The temperature of the aqueous solution used in the tests was maintained at 45°C and the pH at 9.5 (adjusted using an ammonium hydroxide/ammonium chloride buffering agent). Tests times of 2.5, 8 and 24 hours were deployed, and concentrations of 100 ppm of calcium and 80 ppm of oxalates were present in the aqueous solution. A dosage rate of inhibitor of 25 ppm was used in each test. The "DEQUEST" scale inhibitors used in the tests were designated A to E and were as follows: • A - DEQUEST 2066 (diethylenetriaminepenta(methylenephosphonic acid) or its salts) • B - DEQUEST 2046 (ethylenediaminetetra(methylenephosphonic acid) or its salts) • C - DEQUEST 2000 (aminotri(methylenephosphonic acid) or its salts) • D - DEQUEST 2010 (1-hydroxyethylene(1,1 diphosphonic acid)) • E - DEQUEST 2056 (hexamethylenediaminetetra(methylenephosphonic acid) or its salts). TABLE
The results above express the scale-inhibiting effects of the various inhibitors in terms of percentage inhibition.

| Molecule | Percentage Inhibition (time 2.5 hrs) | Percentage Inhibition (time 8 hrs) | Percentage Inhibition (time 24 hrs) |
| --- | --- | --- | --- |
| O=P(O)(O)CN(CCCN(CP(=O)(O)O)CP(=O)(O)O)CCN(CCCN(CP(=O)(O)O)CP(=O)(O)O)CP(=O)(O)O [(I)] | 100 | 92 | 49 |
| O=P(O)(O)CN(CP(=O)(O)O)CP(=O)(O)O [C, aminotri(methylenephosphonic acid) or its salts] | 51 | – | – |
| CC(O)(P(=O)(O)O)P(=O)(O)O [D, 1-hydroxyethylene(1,1 diphosphonic acid)] | 49 | – | – |
| diethylenetriaminepenta(methylenephosphonic acid) or its salts | 64 | 38 | 24 |
| ethylenediaminetetra(methylenephosphonic acid) or its salts [B] | 50 | 23 | 14 |
| hexamethylenediaminetetra(methylenephosphonic acid) or its salts | 34 | – | – |
